Results reported in ChEMBL document CHEMBL5360598, “An ECD and NMR/DP4+ Computational Pipeline for Structure Revision and Elucidation of Diphenazine-Based Natural Products” (J Nat Prod, 2023).
Active and inactive are the calls of the source. The rule behind the calls is not given here.

Experiments:
[1] = biological target: Eukaryotic translation initiation factor 4E/Eukaryotic translation initiation factor 4E-binding protein 1 (Homo sapiens, UniProt P06730+Q13541); experiment: Inhibition of eIF4E-4E-BP1 (unknown origin) interaction by cat-ELCCA assay; type: protein assay
[2] = biological target: Eukaryotic translation initiation factor 4E (Homo sapiens) (UniProt P06730); experiment: Binding affinity to eIF4E in HEK293 cell lysate assessed as thermal stability at 25 uM at 42 to 53 degreeC by CETSA; type: subcellular
MIA PaCa-2 = experiment: Antiproliferative activity against human MIA PaCa-2 cells by Cell Titer Glo assay; type: functional, cell-based

Sequence of Eukaryotic translation initiation factor 4E/Eukaryotic translation initiation factor 4E-binding protein 1 (P06730 whole entry): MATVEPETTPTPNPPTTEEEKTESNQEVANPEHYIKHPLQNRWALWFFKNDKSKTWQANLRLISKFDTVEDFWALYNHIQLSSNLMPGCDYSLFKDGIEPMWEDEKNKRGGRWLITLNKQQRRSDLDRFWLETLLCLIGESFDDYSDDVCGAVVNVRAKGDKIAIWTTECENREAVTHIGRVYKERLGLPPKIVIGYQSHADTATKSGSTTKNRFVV
Sequence of Eukaryotic translation initiation factor 4E/Eukaryotic translation initiation factor 4E-binding protein 1 (Q13541 whole entry): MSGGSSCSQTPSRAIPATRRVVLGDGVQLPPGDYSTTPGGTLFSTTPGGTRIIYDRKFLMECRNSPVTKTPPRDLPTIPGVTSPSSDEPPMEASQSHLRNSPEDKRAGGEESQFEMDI
Sequence of Eukaryotic translation initiation factor 4E (Homo sapiens) (P06730 whole entry): as the sequence (P06730 whole entry) above

EC50 ([1]; read-out: EC50) [µM]	SMILES	further results
240	O=C(O)c1cc2c(c3nc4c(O)cccc4nc13)[C@@H]1Cc3nc4cccc(O)c4nc3[C@@H](O)[C@@H]1O2 [IZUMIPHENAZINE A]	–
260	O=C(O)c1cc2c(c3nc4c(O)cccc4nc13)[C@@H]1Cc3nc4cccc(O)c4nc3[C@H](O2)[C@H]1O	–

Further lines, the compound ahead of its results:

SMILES	EC50 ([1]; read-out: EC50) [µM]	further results
Oc1cccc2nc3c(O)cccc3nc12	–	EC50 [1]: Not Active
O=C(O)c1cc2c(c3nc4c(O)cccc4nc13)[C@@H]1Cc3nc4cccc(O)c4nc3[C@@](O)(C1)O2	–	EC50 [1]: Not Active
O=C(O)c1cc2c(c3nc4c(O)cccc4nc13)O[C@@H]1[C@H](O)c3nc4cccc(O)c4nc3C[C@H]21	7.8	Activity [2]: Active; Activity (MIA PaCa-2): inactive
O=C(O)c1ccc(=O)c2nc3c4c(ccc3[nH]c1-2)[C@@H]1Cc2nc3cccc(O)c3nc2[C@H](O4)[C@H]1O	68	–
O=C(O)c1ccc(O)c2nc3c4c(ccc3nc12)[C@@H]1Cc2nc3cccc(O)c3nc2[C@H](O4)[C@H]1O	310	–
